Measured values as given in patent EP1870419A2, “Modulators of beta-amyloid peptide aggregation comprising D-amino acids” (Praecis Pharmaceuticals Incorporated, priority 1999, dated 2000).

How the values were obtained:
Aβ1-40 = molecular target: T1, Aβ1-40 (Homo sapiens, UniProt P05067); experiment: Nucleation assay (turbidity at 405 nm, change in lag time); type: biochemical; settings: for Nucleation assay data 0.3 µM / Nucleation assay data 1 µM / Nucleation assay data 3 µM: Table II; for Nucleation assay Δlag 1.25 µM / Nucleation assay Δlag 5 µM / Nucleation assay Δlag […]: Table I
T1 construct: first Aβ1-40 peptide is dissolved in HFIP
Description: The nucleation assay is employed to determine the ability of test compounds to alter (e.g. inhibit) the early events in formation of β-AP fibers from monomeric β-AP. Characteristic of a nucleated polymerization mechanism, a lag time is observed prior to nucleation, after which the peptide rapidly forms fibers as reflected in a linear rise in turbidity. The time delay before polymerization of β-AP monomer can be quantified as well as the extent of formation of insoluble fiber by light scattering (turbidity). Polymerization reaches equilibrium when the maximum turbidity reaches a plateau. The turbidity of a solution of natural β-AP in the absence or presence of various concentrations of a β-amyloid modulator compound is determined by measuring the apparent absorbance of the solution at 405nm (A405 nm) over time. The threshold of sensitivity for the measurement of turbidity is in the range of 15-20 µM β-AP. […] This assay can be performed using stirring or shaking to accelerate polymerization, thereby increasing the speed of the assay. Moreover the assay can be adapted to a 96-well plate format to screen multiple compounds.
To perform the nucleation assay, first Aβ1-40 peptide is dissolved in HFIP (1,1,1,3,3,3-Hexafluoro-2-propanol; Aldrich 10,522-8) at a concentration of 2 mg peptide/ml and incubated at room temperature for 30 min. HFIP-solubilized peptide is sonicated in a waterbath sonicator for 5 min at highest setting, then evaporated to dryness under a stream of argon. The peptide film is resuspended in anhydrous dimethylsulfoxide (DMSO) at a concentration of 6.9 mg/ml (25x concentration), sonicated for 5 min as before, then filtered through a 0.2 micron nylon syringe filter (VWR cat. No. 28196-050). Test compounds are dissolved in DMSO at a 100x concentration. Four volumes of 25x Aβ1-40 peptide in DMSO are combined with one volume of test compound in DMSO in a glass vial, and mixed to produce a 1:1 molar ratio of Aβ peptide to test compound. For different molar ratios, test compounds are diluted with DMSO prior to addition to Aβ1-40, in order to keep the final DMSO and Aβ1-40 concentrations constant. […] Ten microliters of the mixture is then added to the bottom of a well of a Coming Costar ultra low binding 96-well plate (Corning Costar, Cambridge MA; cat. No. 2500). Ninety microliters of water is added to the well, the plate is shaken on a rotary shaken at a constant speed at room temperature for 30 seconds, an additional 100 µl of 2x PTL buffer (20 mM NaH2PO4, 300 mM NaCl, pH 7.4) is added to the well, the plate is reshaken for 30 seconds and a baseline (t=0) turbidity reading is taken by measuring the apparent absorbance at 405 nm using a Bio-Rad Model 450 Microplate Reader. The plate is then returned to the shaker and shaken continuously for 5 hours. Turbidity readings are taken at 15 minute intervals.
β-amyloid aggregation in the absence of any modulators results in enhanced turbidity of the natural β-AP solution (i.e., an increase in the apparent absorbance at 405 nm over time).

PC12 cells = experiment: Neurotoxicity assay (MTT viability), PC-12 cells; type: cell-based, rat; settings: aged (5 day or 8 day) aggregates, 48 hours, read-out: EC50 for toxicity
Description: (§1) The neurotoxicity of natural β-amyloid peptide aggregates, in either the presence or absence of a β-amyloid modulator, can be tested in a cell-based assay using either a rat or human neuronally-derived cell line (PC-12 cells or NT-2 cells, respectively) and the viability indicator […]-tetrazolium bromide (MTT). (See e.g., Shearman, M.S. et al. (1994) Proc. Natl. Acad. Sci. USA 91:1470-1474; Hansen, M.B. et al. (1989) J Immun. Methods 119:203-210 for a description of similar cell-based viability assays). PC-12 is a rat adrenal pheochromocytoma cell line and is available from the American Type Culture Collection, Rockville, MD (ATCC CRL 1721). MTT (commercially available from Sigma Chemical Co.) is a chromogenic substrate that is converted from yellow to blue in viable cells, which can be detected spectrophotometrically. […]

NT2 cells = experiment: Neurotoxicity assay (MTT viability), NT-2 cells; type: cell-based, human; settings: aged (5 day or 8 day) aggregates, 48 hours, read-out: EC50 for toxicity
Description: as §1

[1] = rows marked *: measured at 0.6 µM of compound
[2] = rows marked *: measured at 1.25 µM of compound
[3] = rows marked *: measured at […] of compound
[4] = 1.25 µM test compound, 5 µM Aβ1-40, ratio to control lag time
[5] = 5 µM test compound, 5 µM Aβ1-40, ratio of lag time with compound to lag time of control
[6] = […] test compound, 5 µM Aβ1-40, ratio to control lag time
[7] = 0.3 µM test compound, 5 µM Aβ1-40, ΔLag, ratio to control lag time
[8] = 1 µM test compound, 5 µM Aβ1-40, ΔLag, ratio to control lag time
[9] = 3 µM test compound, 5 µM Aβ1-40, ΔLag, ratio to control lag time

T1 sequence (P05067 672-711): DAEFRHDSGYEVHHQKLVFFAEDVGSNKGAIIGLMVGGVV

Substance | Nucleation assay Δlag 1.25 µM (Aβ1-40; [4]) | Nucleation assay Δlag 5 µM (Aβ1-40; [5]) | Nucleation assay Δlag […] (Aβ1-40; [6]) | other results
TFA•N-methyl-(lvffl)-NH2 [PPI-1019] | – | – | – | Nucleation assay data 0.3 µM (Aβ1-40; [1]): 2.0; Nucleation assay data 1 µM (Aβ1-40; [2]): >2.5; Nucleation assay data 3 µM (Aβ1-40; [3]): >2.5
TFA·H-(lvffa)-isopropylamide [PPI-992] | 1 | 3 | 1 | –
TFA·H-(lvffa)-dimethylamide [PPI-993] | 1 | 1 | 1 | –
TFA·H-(lf-D-Cha-vl)-NH2 [PPI-1318] | – | – | – | Nucleation assay data 0.3 µM (Aβ1-40; [7]): 1; Nucleation assay data 1 µM (Aβ1-40; [8]): 2; Nucleation assay data 3 µM (Aβ1-40; [9]): >5
TFA·N,N-diethyl-(Gaffvl)-NH2 [PPI-1005] | 1 | 3 | 3 | –
TFA·H-(lf-[F5]f-vl)-NH2 [PPI-1320] | – | – | – | Nucleation assay data 0.3 µM (Aβ1-40; [7]): 1; Nucleation assay data 1 µM (Aβ1-40; [8]): 3; Nucleation assay data 3 µM (Aβ1-40; [9]): >5
TFA·N-methyl-(Gaffvl)-NH2 [PPI-968] | 2 | >5 | >5 | –
TFA·N,N-dimethyl-(affvl)-NH2 [PPI-913] | 1 | 1 | 1 | –
TFA·H-(Glvffl)-NH2 [PPI-1013] | – | – | – | Nucleation assay Δlag 1.25 µM (Aβ1-40; rows marked #: measured at 0.6 µM of compound): 2; Nucleation assay Δlag […] (Aβ1-40; rows marked #: measured at 1.25 µM of compound): >3; Nucleation assay Δlag 5 µM (Aβ1-40; rows marked #: measured at […] of compound): 2
TFA·N-ethyl-(Gaffvl)-NH2 [PPI-969] | 3 | >5 | >5 | –
2 TFA·H-lvf-NH-NH-fvl-H [PPI-1125] | – | – | – | Nucleation assay data 0.3 µM (Aβ1-40; [1]): 2.0; Nucleation assay data 1 µM (Aβ1-40; [2]): >2.5; Nucleation assay data 3 µM (Aβ1-40; [3]): >2.5
2TFA·H-(lfkvl)-NH2 [PPI-1321] | – | – | – | Nucleation assay data 0.3 µM (Aβ1-40; [7]): <1; Nucleation assay data 1 µM (Aβ1-40; [8]): <1; Nucleation assay data 3 µM (Aβ1-40; [9]): <1
aged Aβ1-40 aggregates: Aβ1-40 peptide solution incubated at 37 °C for eight days to allow fibrils to form | – | – | – | EC50 (PC12 cells): 1 to 2 µM; EC50 (NT2 cells): 1 to 2 µM
TFA·N-isopropyl-(Gaffvl)-NH2 [PPI-970] | 1 | >5 | >5 | –
TFA·H-(lf-[p-F]f-vl)-NH2 [PPI-1319] | – | – | – | Nucleation assay data 0.3 µM (Aβ1-40; [7]): 1; Nucleation assay data 1 µM (Aβ1-40; [8]): >5; Nucleation assay data 3 µM (Aβ1-40; [9]): >5
TFA·N,N-diethyl-(affvl)-NH, [PPI-1006] | 1 | 1 | 1 | –
TFA·N,N-dimethyl-(Gaffvl)-NH2 [PPI-803] | <1 | <1 | <1 | –
